# Measured values: patent publication US20140213536A1, “MARKETING N-METHY[…] RELATED SUBSTANCES FOR USE IN TREATING/ LESSENING THE OCCURRENCE OF HOT FLASHES RELATED TO MENOPAUSE” (DSM IP ASSETS B.V., priority 2013, published 2014)
# Several values for one entry are separate records, joined by “and”; a condition that tells them apart may be missing. Equal entries are not always repeated.
# Columns and labels:
# [1] = test system: ovariectomized female rats; assay: CGRP-induced hot flash / skin temperature in ovariectomized rats; type: in vivo, rat; conditions: for CGRP response of skin temperature above baseline (representative data, FIG. 3) / basal skin temperature (representative data, FIG. 3): NMS 0.48 or 18.5 ug/kg/d through diet, estradiol subcutaneous; for CGRP response of skin temperature above baseline (representative data, FIG. 3) / basal skin temperature (representative data, FIG. 3) / CGRP-induced hot flash response (repeated measures ANOVA, FIG. 9A): vs untreated controls; for CGRP-induced hot flash response (repeated measures ANOVA, FIG. 9A): seed supplying NMS-glucoside or NMS oxalate 18.5 or 55.5 μg/kg/d in diet, estradiol implant
# Text: (§1) The animals arrived at approximately 60 days of age, and were placed on specific diets throughout the study (to approximately 160 days of age). The diets were formulated and provided by Dyets Inc. (Bethlehem, Pa.) and are based on a modified AIN-93G diet. These diets were fed ad libitum. Two weeks after arrival, at approximately 80 days of age, the animals were ovariectomized, allowed to recover for three weeks, and then placed on defined diets. In the first study, these diets contained 0, 0.08, 0.48, 3.2, 18.5, 185, or 3700 μg/kg/day of NMS dihydrochloride (FIG. 2). In the second, follow-up study, the diets contained no NMS (control), NMS oxalate (18.5 or 55.5 μg/kg/d), or milled Zanthoxylum seed in quantities that supplied NMS-glucoside at equivalent doses (18.5 or 55.5 μg/kg/d; FIG. 8). The NMS and NMS-glucoside content was verified using liquid chromatography with mass spectrometric detection. Extraction methods were similar to those of Yanase et al., 2010.
# (§2) All diets were fed for 2 weeks prior to the first behavioral assessment (open field). Positive control animals received a 5.0 mm subcutaneous silastic capsule implant packed with a crystalline 17β-estradiol and cholesterol mixture (25%, 0.058 inch inner diameter, 0.077 inch outer diameter; Dow Corning #508-006). Animals were then examined for locomotor activity (open field) and in two behavioral assays to assess mood (elevated plus maze and swim test) separated by two weeks in-between each assay. Two weeks after the final behavioral task (swim test), the animals were anesthetized and their physiological response to an experimentally-induced hot flash was tested. After the temperature monitoring was complete, tissue was harvested while the animals were still anesthetized.
# Ovariectomy. Two weeks after arrival, each animal was anesthetized via isoflurane inhalation and the dorsal mid-lumbar area was shaved and swabbed with surgical scrub, iodine and alcohol. The animal was then placed on a warm heat pad covered by a sterile cloth/pad in ventral recumbency with tail towards surgeon. A 2-3 cm dorsal midline skin incision was made halfway between the caudal edge of the ribcage and the base of the tail. A single transverse incision of 5.5-10 mm long was made into the muscle wall on both the right and left sides approximately ⅓ of the distance between the spinal cord and the ventral midline. The ovary and the oviduct were exteriorized through the muscle wall. A hemostat was clamped around the uterine vasculature between the oviduct and uterus and the uterine vasculature was ligated with dissolvable suture. Each ovary and part of the oviduct was removed with single cuts through the oviducts near the ovary. The hemostat was removed, and the remaining tissue replaced into the peritoneal cavity. The ovary on the other side was removed in a similar manner. The muscle incision is not sutured. Sterile wound clips were used to close the skin incision. Animals were monitored daily for signs of infection or morbidity.
# Hot Flash Studies. Animals were anesthetized with intraperitoneal co-injection of urethane (750 mg/kg) and α-chloralose (60 mg/kg). […] Thermistor probes (ADI Instruments, Colorado Springs, Colo.) were taped to the plantar surfaces of one hind foot. Forty minutes later, after anesthesia-induced hypothermia had stabilized, the basal skin temperature was recorded. Temperature monitoring then occurred at 5-second intervals throughout the remainder of the experiment. Calcitonin gene related peptide (CGRP; 10 μg/kg, i.v.) dissolved in saline was then injected via the tail vein. A maximum of eight animals were tested at the same time due to limitations on instrumental throughput. Cage mates were always tested together in order to avoid the stresses of single-housing and the potential stress hormone effects on body temperature. Therefore only four groups could be tested within any one given day.
# [2] = Circulating (plasma) estradiol in ovariectomized rats; type: in vivo, rat; conditions: dietary NMS; for plasma estradiol level (FIG. 5): first study, estradiol implant as positive control
# Text: as §1, §2
# [3] = Body weight of ovariectomized rats on diets; type: in vivo, rat; conditions: for body weight throughout experiment (FIG. 6A): vs control diet / all other groups
# Text: as §1, §2
# [4] = test system: ovariectomized female rats; assay: Uterine weight (uterotrophic effect) in ovariectomized rats; type: in vivo, rat; conditions: vs ovariectomized controls; for uterine weight (FIG. 6D): first study, after 80 days of supplementation; for uterine weight / uterine growth (FIG. 11A): follow-up study
# Text: as §1, §2
# [5] = test system: ovariectomized female rats; assay: Forced swim test (depressive-like behaviors); type: in vivo, rat
# Procedure: Swim Test. Each rat was examined in the swim test for depressive-like behaviors. The test was performed over two consecutive days since it is a measure of an adaptive response to a perceived inescapable situation. The first test establishes to the animal that it is an inescapable situation, and the second test measures the animal's degree of passive coping derived from an unwillingness to maintain effort in an inescapable situation. Typical antidepressants limit the amount of passive coping (immobility) and promote the amount of active coping (swimming/climbing). On day one (0800 h to 1300 h), animals were acclimated to the test by placing them in a plexiglass cylindrical container (45 cm×20 cm) filled with 30 cm of fresh water (25° C.) for fifteen minutes, after which they were toweled dried and returned to their home cage. On day two (24 hrs later) the test was performed for a total swim time of five minutes, after which the rats were toweled dried and returned to their home cage. Both trials were recorded by a digital video camera was secured to the ceiling above the cylinders and connected to a laptop. Total time spent swimming and immobile was measured real-time by behavioral software (Anymaze, Stoelting Co.), and scored post hoc by a blinded experimenter from captured video. […] Immobility was defined as absence of any movement except for slight movements necessary for the animal to keep its head above water. Climbing was defined as rapid movement of the forelimbs that broke the surface of the water.
# [6] = test system: ovariectomized female rats; assay: Open field task (locomotion, anxiety-like behaviors); type: in vivo, rat
# Procedure: (§3) Open Field Task. Animals were tested in the open field to measure overall locomotor activity and basal anxiety state. In the open field test each rat is placed in a novel environment consisting of an arena measuring 100×100×40 cm. Rats were placed in the middle of the chamber and behavior in the open field was recorded for thirty minutes with a digital camera and measured by software (AnyMaze, Stoelting Co., Inc.). The following parameters were analyzed: a) total distance traveled; b) time in center; c) center entries; and d) number of fecal boli excreted.
# [7] = test system: ovariectomized female rats; assay: Elevated plus maze task (anxiety-like behaviors); type: in vivo, rat
# Procedure: Elevated Plus Maze Task. Animals were tested on the elevated plus maze to measure anxiety-related behavior. The plus-maze is elevated ˜85 cm above the floor and consisted of two open and two closed arms of the same size (50×10 cm). The closed arms were surrounded by walls 40 cm high, and the arms were constructed of black acrylic slabs that radiate from a central platform (10×10 cm) to form a plus sign (Lafayette Instruments, Lafayette, Ind.). Each rat was placed in the central platform facing one of the open arms, and its behavior was recorded during a 5-min testing period with video capture software (AnyMaze). The amount of time spent on open and closed arms and the number of entries into open and closed arms were assessed with video analysis (AnyMaze). In addition, the animals were scored live by the experimenter for time spent rearing, grooming, and number of stretch-attend postures and head dips over the edge of the open arm.
# [8] = test system: ovariectomized female rats; assay: Behavioral measures of mood overall (open field, elevated plus maze, swim test); type: in vivo, rat
# Procedure: Animal Handling. Rats were handled each day for four days prior to behavioral analysis. This involved gently removing the animal from its cage and holding it in the experimenter's lap on a towel without restraint, allowing the animal to explore. This acclimatized the animal to handling by experimenters. All behavioral testing occurred in a room adjacent to the colony room, and the animals were acclimated to the test room overnight prior to testing.
# as §3
# Elevated Plus Maze Task. […] Each rat was placed in the central platform facing one of the open arms, and its behavior was recorded during a 5-min testing period with video capture software (AnyMaze). The amount of time spent on open and closed arms and the number of entries into open and closed arms were assessed with video analysis (AnyMaze). […]
# [9] = target: T1, 5-HT7 receptor (Homo sapiens, UniProt P34969); conditions: FIG. 1B, cited from earlier work
# [10] = target: serotonin reuptake transporter (SERT) (Homo sapiens, UniProt P31645); conditions: FIG. 1C, Powell et al., 2008, cited from earlier work
# [11] = target: T1, 5-HT7 receptor; conditions: 5-HT7 vs other 5-HT receptors; cited from earlier work
# T1 sequence (P34969 whole entry): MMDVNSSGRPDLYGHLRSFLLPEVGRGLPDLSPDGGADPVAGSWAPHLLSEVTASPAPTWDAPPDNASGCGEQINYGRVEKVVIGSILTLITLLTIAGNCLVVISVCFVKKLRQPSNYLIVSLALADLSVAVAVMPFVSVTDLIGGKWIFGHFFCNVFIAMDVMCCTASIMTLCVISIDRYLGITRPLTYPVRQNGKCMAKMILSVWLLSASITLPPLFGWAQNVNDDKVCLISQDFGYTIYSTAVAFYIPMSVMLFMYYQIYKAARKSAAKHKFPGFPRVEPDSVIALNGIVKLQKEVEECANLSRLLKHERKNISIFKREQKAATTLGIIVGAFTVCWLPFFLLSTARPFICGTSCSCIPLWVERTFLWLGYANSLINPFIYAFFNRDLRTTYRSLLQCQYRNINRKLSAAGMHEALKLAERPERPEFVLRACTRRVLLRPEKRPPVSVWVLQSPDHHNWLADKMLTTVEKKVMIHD
# Sequence of serotonin reuptake transporter (SERT) (P31645 whole entry, species assumed): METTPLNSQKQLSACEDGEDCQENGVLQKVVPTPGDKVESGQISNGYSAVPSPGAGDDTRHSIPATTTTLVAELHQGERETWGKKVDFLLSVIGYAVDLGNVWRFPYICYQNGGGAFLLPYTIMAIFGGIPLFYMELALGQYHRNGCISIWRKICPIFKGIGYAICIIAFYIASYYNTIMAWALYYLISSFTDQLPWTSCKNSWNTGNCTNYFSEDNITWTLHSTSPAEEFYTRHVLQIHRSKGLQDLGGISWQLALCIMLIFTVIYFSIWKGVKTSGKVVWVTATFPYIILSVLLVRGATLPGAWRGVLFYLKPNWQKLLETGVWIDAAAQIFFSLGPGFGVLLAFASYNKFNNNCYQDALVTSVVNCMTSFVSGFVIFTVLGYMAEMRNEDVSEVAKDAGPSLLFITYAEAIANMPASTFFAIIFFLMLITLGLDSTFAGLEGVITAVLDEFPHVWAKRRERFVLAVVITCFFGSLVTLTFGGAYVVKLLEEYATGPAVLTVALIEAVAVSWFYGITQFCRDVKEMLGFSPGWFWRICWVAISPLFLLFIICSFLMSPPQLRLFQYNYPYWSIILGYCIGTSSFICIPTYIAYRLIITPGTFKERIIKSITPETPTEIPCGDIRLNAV
compound,measurement,setting,value
"CNCCc1c[nH]c2ccc(O)cc12 [NMS, N-methylserotonin]",human equivalent dose (HED) for thermoregulatory effects,"[1]; body surface area (BSA) method, first study",150 to 840 µg/day
same,basal skin temperature (FIG. 4),"[1]; first study, 18.5 ug/kg/d dietary NMS vs untreated controls",decreased basal skin temperature
same,"CGRP response of skin temperature above baseline (representative data, FIG. 3)",[1]; first study,lower CGRP responses
same,"basal skin temperature (representative data, FIG. 3)",[1]; first study,lower basal temperatures
same,"CGRP-induced hot flash response, baseline corrected (repeated measures ANOVA, FIG. 4)","[1]; first study, dietary NMS",blunted the CGRP-induced hot flash response
same,"CGRP-induced hot flash response (repeated measures ANOVA, FIG. 9A)",[1]; follow-up study,blunted the CGRP-induced hot flash response
same,plasma estradiol level (FIG. 5),[2],increased plasma estradiol in a dose-dependent manner
same,non-uterine estradiol secretion,[2]; ovariectomized rats,tripled
same,"weight change as a percentage of original weight (FIG. 6B, C)","[3]; first study, throughout or at the end of the study",not different between dietary treatments
same,body weight throughout experiment (FIG. 6A),[3]; first study,did not alter body weight
same,overall weight change as a percentage of original weight at the end of the study (FIG. 11C),[3]; follow-up study,not different between dietary treatments
same,weight change as a percentage of original weight over time (FIG. 11B),"[3]; follow-up study, vs controls",different between controls and pepper supplemented or NMS supplemented groups
same,uterine weight (FIG. 6D),[4],did not alter uterine weight
same,uterine weight / uterine growth (FIG. 11A),[4],did not alter uterine weight
same,"time spent climbing, second session of forced swim test (FIG. 7B)",[5]; first study,no significant differences amongst groups
same,effect of treatment in the forced swim test (FIG. 10C),[5]; follow-up study,No significant effects of treatment
same,total distance traveled in open field (FIG. 7C),"[6]; first study, 30 minute test",no differences across groups
same,effect of treatment in the open field (FIG. 10A),[6]; follow-up study,No significant effects of treatment
same,time spent in the open arms of elevated plus maze (FIG. 7D),[7]; first study,no differences amongst groups
same,effect of treatment in the elevated plus maze (FIG. 10B),[7]; follow-up study,No significant effects of treatment
same,behavioral measures of mood (FIG. 7),"[8]; first study, dietary NMS",did not alter behavioral measures of mood
same,behavioral measures of mood / mood-related behaviors (FIG. 10),[8]; follow-up study,did not alter behavioral measures of mood
same,concentration of maximal activation of the 5-HT7 receptor,[9],50 to 100 nM
same,EC50,[9]; read-out: EC50 of 5-HT7 receptor activation,~0.022 µM and 0.022 µM
same,fold lower affinity than Prozac at the serotonin reuptake transporter,[10],100 fold
same,IC50,[10]; read-out: IC50 of serotonin reuptake transporter inhibition,~0.5 µM
same,binding preference among 5-HT receptors,[11],binds preferentially to 5-HT7 receptors over other 5-HT receptors
"CNCCc1c[nH]c2ccc(O[C@@H]3O[C@H](CO)[C@@H](O)[C@H](O)[C@H]3O)cc12 [NMS-glucoside, N-methylserotonin 5-O-6-glucoside]",human equivalent dose (HED),"[1]; BSA calculation, follow-up study, NMS-glucoside in milled seed",150 to 540 µg/day
"C[C@]12CC[C@@H]3c4ccc(O)cc4CC[C@H]3[C@@H]1CC[C@@H]2O [estradiol, 17β-estradiol, reference compound]","CGRP response of skin temperature above baseline (representative data, FIG. 3)",[1]; first study,lowest responses to CGRP
same,"basal skin temperature (representative data, FIG. 3)",[1]; first study,lowest basal temperatures
same,"CGRP-induced hot flash response (repeated measures ANOVA, FIG. 9A)",[1]; follow-up study,blunted the CGRP-induced hot flash response
same,plasma estradiol level (FIG. 5),[2],highest levels of plasma estradiol
same,body weight throughout experiment (FIG. 6A),[3]; first study,significantly lower body weight
same,body weight throughout the experiment (FIG. 11B),"[3]; follow-up study, vs all other groups",significantly lower body weight
same,uterine weight (FIG. 6D),[4],significantly higher uterine weights
same,uterine weight / uterine growth (FIG. 11A),[4],significantly higher uterine weights
same,"time immobile, second session of forced swim test (FIG. 7A)",[5]; first study,spent less time immobile
